For experiment [1], the system named is HCV NS3 protease. In kind it is cell-based, hepatitis C virus. To be noted: HEK293 cells grown with or without BILN-2061 (0, 1 μM, or 10 μM).
Text: For testing of the drug-regulatable epitope tag concept by immunoblotting, a construct of linear fusions of PSD-95, HCV NS3 protease flanked on both sides by cleavage sites, an HA epitope tag, and the cyan fluorescent protein (CFP) was used.
For each construct, HEK293 cells were transfected with Lipofectamine 2000, grown with or without the NS3 protease inhibitor BILN-2061 (Lamarre et al., 2003), and immunoblotted after boiling/SDS lysis with anti-PSD-95 to differentiate uncleaved and cleaved products by molecular weight.
Experiments using the constructs of the disclosure were performed in transiently transfected mammalian cells by immunoblotting.
Experiment [2] deals with HCV NS3 protease (Hepatitis C virus genotype 1a, UniProt P27958). In kind it is cell-based. To be noted: TimeSTAMPt; hippocampal neurons 18 DIV, 9 DPT. From the text:
(§1) Hippocampal neurons were dissected from postnatal day 0 or 1 rat pups and cultured in Neurobasal medium supplemented with B27 and glutamine. For immunoblotting experiments, neurons were transfected prior to plating using the Amaxa Nucleofector protocol. For other experiments, neurons were transfected at 7-10 DIV by calcium phosphate.
(§2) To recapitulate endogenous mechanisms of mRNA localization and translation, the 5′ and 3′ untranslated regions of each gene were included in all constructs.

In experiment [3] the target is HCV NS3 protease (Hepatitis C virus genotype 1a, UniProt P27958, T1080A). In kind it is cell-based. To be noted: TimeSTAMPa; hippocampal neurons 18 DIV, 9 DPT.
Sequence of HCV NS3 protease (Hepatitis C virus genotype 1a, UniProt P27958, T1080A) (P27958 1027-1208 T1080A): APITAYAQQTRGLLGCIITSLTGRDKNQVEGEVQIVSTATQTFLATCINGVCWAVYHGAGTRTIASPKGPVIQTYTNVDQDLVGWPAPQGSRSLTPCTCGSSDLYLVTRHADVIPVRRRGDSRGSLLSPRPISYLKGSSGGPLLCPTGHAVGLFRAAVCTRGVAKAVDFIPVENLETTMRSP
Text: as §1, §2

Experiment [4] has as its target HSV-TimeSTAMPt-HA-dCaMKII (Hepatitis C virus genotype 1a, UniProt P27958). The class given is in vivo, Drosophila melanogaster. To be noted: adult flies, brains analyzed 6 hours after BILN-2061.
Text: Homozyous transformed lines were established from single progeny of embryos injected with pUAST-HSV-TimeSTAMPt-HA-dCaMKII or pUAST-HSV-TimeSTAMPa-HA-dCaMKII. […] Male homozygotes with third-chromosome insertions were crossed to elav-GAL4; UAS-tubulin-GFP; + females, and the male elavGAL4/Y; UAS-tubulin-GFP/+; HSV-TimeSTAMP-HA-dCaMKII/+ progeny were used for experiments within 2 days post-eclosion.
For experiments involving HSV-TimeSTAMPt-HA-dCaMKII, flies were anesthesized by carbon dioxide, then a hole was punctured in the medial ocellus region using a glass micropipette with a 10 μm bore and a 25 nL drop of 2 mM BILN-2061 in 20% DMSO 5% Cremophor EL in Hank's buffered saline solution (HBSS) was placed over the region. […] For HSV-TimeSTAMPa-HA-dCaMKII, flies were starved for 12 hours with only water, then placed in a vial with an emulsion of 30% (w/v) yeast, 30% (v/v) glycerol, 30% (v/v) water, 5% green food coloring, 5% dimethylformamide, and 500 μM BILN-2061. […] For analysis, flies were decapitated and brains were simultaneously dissected and fixed in HBSS with 4% paraformaldehyde and 0.2% Triton X-100 for 40 minutes at room temperature. Brains were processed for immunocytochemistry by standard methods and imaged on a Zeiss LSM510 or LSM5Live confocal microscope.
Transgenic flies were generated expressing this fusion protein in all neurons.
Experiment [5] relates to new protein synthesis in neurons. As to the kind of experiment: Dependence of TimeSTAMP tag appearance on new protein synthesis in neurons. In kind it is cell-based, rat. To be noted: for HA-tagged Arc appearing after incubation in 10 μM BILN for 6 hours: Arc-TimeSTAMPa-HA neurons, 7 DIV, simultaneous treatment (cycloheximide 50 μg/mL or BDNF).
Text: as §1, §2

Sequence of HSV-TimeSTAMPt-HA-dCaMKII (P27958 1027-1208): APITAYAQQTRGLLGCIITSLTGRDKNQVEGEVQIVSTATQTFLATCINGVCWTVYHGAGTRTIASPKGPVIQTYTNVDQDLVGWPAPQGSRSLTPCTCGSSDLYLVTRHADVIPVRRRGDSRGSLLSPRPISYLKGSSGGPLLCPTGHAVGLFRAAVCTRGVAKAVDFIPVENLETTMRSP
Sequence of HCV NS3 protease (Hepatitis C virus genotype 1a, UniProt P27958) (P27958 1027-1208): as above

For the molecule `COc1ccc2c(O[C@@H]3C[C@H]4C(=O)N[C@]5(C(=O)O)C[C@H]5/C=C\CCCCC[C@H](NC(=O)OC5CCCC5)C(=O)N4C3)cc(-c3csc(NC(C)C)n3)nc2c1` [BILN-2061], the “Cleavage of constructs containing the NS3 domain alone without NS4A cofactor (immunoblot)” value with HCV NS3 protease [1] was “inhibited”. For the same molecule, the HA immunofluorescence induction on HCV NS3 protease [2] was 121 fold; at HCV NS3 protease [3], 20 fold. The “HSV labelling for newly synthesized dCaMKII in fly brain” value in experiment [4] is reported as “HSV labelling for newly synthesized dCaMKII is present in the mushroom bodies”.

Consider `C[C@@H]1C[C@@H]([C@H](O)CC2CC(=O)NC(=O)C2)C(=O)[C@@H](C)C1` [cycloheximide], for which, in experiment [5] (50 μg/mL cycloheximide, 18 DIV neurons, 9 DPT), the “Synaptic HA staining of PSD-95-GFP-TimeSTAMPa-HA after 6 hours of BILN-2061” value is given as “No staining”. For the same molecule, the “HA-tagged Arc appearing after incubation in 10 μM BILN for 6 hours” value in experiment [5] is “blocked”.

B1: BDNF: growth factor used for translational induction (protein, UniProt P23560 19-247, looked up)
Neurotrophic factor BDNF …: APMKEANIRGQGGLAYPGVRTHGTLESVNGPKAGSRGLTSLADTFEHVIEELLDEDQKVRPNEENNKDADLYTSRVMLSSQVPLEPPLLFLLEEYKNYLDAANMSMRVRRHSDPARRGELSVCDSISEWVTAADKKTAVDMSGGTVTVLEKVPVSKGQLKQYFYETKCNPMGYTKEGCRGIDKRHWNSQCRTTQSYVRALTMDSKKRIGWRFIRIDTSCVCTLTIKRGR
As to B1, the “HA-tagged Arc appearing after incubation in 10 μM BILN for 6 hours” value in experiment [5] is “increased”.
